Assay results published in article PMC9000482, “Inhibition of Aldose Reductase by Ginsenoside Derivatives via a Specific Structure Activity Relationship with Kinetics Mechanism and Molecular Docking Study” (Molecules, 2022).
Like-named read-outs stand apart in the source and are kept apart here. Marks after values point to notes of the source that are not given here.

Legend:
[1] = system: sorbitol accumulation in rat lens; assay: Lens culture and intracellular sorbitol measurement (ex vivo); type: cell-based, Sprague-Dawley rats; details: 25 mM glucose, 6 days, sample 5 μg/mL, mean ± SD (n = 3); for inhibition at 5 µg/mL: Rattus norvegicus, 144 h
[2] = target: T1, human recombinant aldose reductase (HRAR) (Homo sapiens, UniProt P15121); assay: HRAR inhibition assay (DL-glyceraldehyde substrate); type: biochemical; details: substrate DL-glyceraldehyde; mean ± S.E.M. of triplicate experiments; read-out: HRAR IC50
T1 construct: purchased Wako Chemicals (Osaka, Japan)
Procedure: HRAR inhibition was studied according to Nishimura et al.. AR action was studied by measuring the reduction in NADPH absorption at 340 nm over a period of 1 min on a UV/visible spectrophotometer (Ultrospec®2100pro, Biochrom, Holliston, MA, USA). For HRAR inhibition, the HRAR enzyme (0.4 units), was used in all enzyme inhibition evaluations. […] The inhibition percentage (%) was measured as designated in the RLAR assay. The DA sample/min value characterizes the decrease in absorbance for 1 min with the test samples and substrate. The ability of each sample to inhibit HRAR was observed as an IC50 value (µM) and measured from the log-dose inhibition curve.

[3] = target: T2, rat lens aldose reductase (RLAR) (Rattus norvegicus, UniProt P07943); assay: Enzyme kinetics of RLAR inhibition (Lineweaver-Burk and Dixon plots); type: biochemical; details: for RLAR Mode of Inhibition: Lineweaver-Burk plot
T2 construct: from tissue; host or cells: lens of Sprague-Dawley rats (supernatant of homogenate)
Procedure: (§1) Enzyme inhibition with different concentrations ([…]) was assessed by monitoring the effects of different concentrations of the substrate. The following concentrations of test ginsenosides were used in the RLAR kinetics analysis: 0, 2, 10, and 50 µM for protopanaxadiol; 0, 0.5, 2.5, and 10 µM for (20S) ginsenoside Rg3; 0, 0.5, 2.5, and 10 µM for (20R) ginsenoside Rg3; 0, 0.1, 0.5, and 2.5 µM for ginsenoside Rh2; 0, 2, 10, and 50 µM for protopanaxatriol; 0, 0.8, 4, and 20 µM for ginsenoside Rf; 0, 0.8, 4, and 20 µM for (20S) ginsenoside Rg2, and 0, 0.5, 2.5, and 10 µM for ginsenoside Rh1. Using Lineweaver-Burk double reciprocal plots, the inhibition type was determined using various concentrations of DL-glyceraldehyde (5, 10, and 20 mM) for HRAR as a substrate in the presence of different concentrations of the active test ginsenosides. The concentrations of test ginsenosides in the HRAR kinetics analysis were as follows: 0, 0.1, 0.5, and 2.5 µM for protopanaxadiol; 0, 0.5, 2, and 10 µM for (20S) ginsenoside Rg3; 0, 1, 5, and 20 µM for (20R) ginsenoside Rg3; 0, 0.5, 2.5, and 10 µM for ginsenoside Rh2; 0, 0.1, 0.5, and 2.5 µM for compound K; 0, 1, 5, and 10 µM for protopanaxatriol; 0, 0.5, 4, and 20 µM for (20R) ginsenoside Rg2, and 0, 0.2, 2, and 5 µM for ginsenoside Rh1. The Dixon plot is a graphical method [1/enzyme velocity (1/V)] against inhibitor concentration [I] used to determine the type of enzyme inhibition; it was used to identify the dissociation or inhibition constant (Ki) for the enzyme-inhibitor complex. Dixon plots (single reciprocal plots) for RLAR and HRAR inhibition were obtained in the presence of 100, 50, and 10 mM RLAR, and 20, 10, and 5 mM HRAR DL-glyceraldehyde substrate. Thus, the type of enzyme inhibition was determined by interpreting the Lineweaver-Burk plots, and the inhibition constants (Ki) were determined by interpreting the Dixon plots.

[4] = target: T1, human recombinant aldose reductase (HRAR); assay: Enzyme kinetics of HRAR inhibition (Lineweaver-Burk and Dixon plots); type: biochemical; details: for Ki: Dixon plots, single inhibition constant, read-out: HRAR Ki; for HRAR Mode of Inhibition: Lineweaver-Burk plot
Procedure: as §1

[5] = target: T2, rat lens aldose reductase (RLAR); assay: RLAR inhibitory activity assay (rat lens homogenate, DL-glyceraldehyde substrate); type: biochemical; details: rat lens homogenate; substrate DL-glyceraldehyde; mean ± S.E.M. of triplicate experiments; read-out: RLAR IC50
Procedure: A rat lens homogenate was prepared with minor modifications according to the method reported by Hayman et al.. Briefly, the lenses were removed from the eyes of Sprague-Dawley rats weighing 250–280 g. They were homogenized in sodium phosphate buffer (pH 6.2) that was prepared with dibasic sodium phosphate (Na2HPO4∙H2O, 0.66 g) and monobasic sodium phosphate (NaH2PO4∙H2O, 1.27 g) in 100 mL of double-distilled H2O. The homogenate was clarified by centrifugation at 10,000 rpm at 4 °C for 20 min and the resultant supernatant was frozen until use. A crude AR homogenate with a specific activity of 6.5 U/mg was used in all enzyme inhibition evaluations. The reaction solution consisted of 620 µL of 100 mM sodium phosphate buffer (pH 6.2), 90 µL of AR homogenate, 90 µL of 1.6 mM NADPH, and 9 µL of sample, while the substrate included 90 µL of 50 mM DL-glyceraldehyde. […] AR activity was determined by measuring the decrease in NADPH absorption at 340 nm over a 4 min period on an Ultrospec®2100pro UV/Visible spectrophotometer. SWIFT II Applications software (Amersham Biosciences, NJ, USA) was used for all data analyses. The inhibition percentage (%) was calculated as follows in Equation (1):[1 − (∆Asample/min − ∆Ablank/min)/(∆Acontrol/min − ∆Ablank/min)] × 100(1) in which ∆Asample/min represents the test sample and substrate’s reduction in absorbance over 4 min, and ∆A control/min represents the same reduction in absorbance, but with 100% DMSO (dimethyl sulfoxide) rather than the test sample.

Structure (SMILES) | Sorbitol Content (mg)/Lens Wet Weight (g) [1] | inhibition at 5 µg/mL [1] | IC50 [2] | RLAR Kiu (binding constant of inhibitor with enzyme-substrate complex) ([3]; Dixon plots) | Ki ([3]; Dixon plots, read-out: RLAR Kic (binding constant of inhibitor with free enzyme)) | RLAR Mode of Inhibition [3] | Ki [4] | HRAR Mode of Inhibition [4] | HRAR Mode of Inhibition ([4]; listed as protopanaxadiol) | IC50 [5] | Ki ([3]; Dixon plots, single inhibition constant, read-out: RLAR Ki) | RLAR Mode of Inhibition ([3]; listed as protopanaxatriol) | HRAR Mode of Inhibition ([4]; listed as protopanaxatriol)
CC(C)=CCC[C@](C)(O)C1CC[C@]2(C)[C@@H]1[C@H](O)CC1[C@@]3(C)CC[C@H](O)C(C)(C)C3CC[C@]12C (some centres unmarked) [Protopanaxadiol] | 0.06 ± 0.01 ^a mg/g | 96.5 ± 2.91% | 0.36 ± 0.1 µM | 37.39 µM | 18.8 µM | Mixed type | 0.72 µM | Competitive type | competitive | 21.4 ± 2.45 µM |  |  | 
CC(C)=CCC[C@](C)(O)[C@H]1CC[C@]2(C)[C@@H]1[C@H](O)C[C@@H]1[C@@]3(C)CC[C@H](O)C(C)(C)[C@@H]3[C@@H](O)C[C@]12C [Protopanaxatriol] | 0.09 ± 0.01 ^a mg/g | 94.8 ± 3.46% | 1.43 ± 0.14 µM |  |  | Non-competitive type | 2.61 µM | Competitive type |  | 27.9 ± 1.19 µM | 28.9 µM | non-competitive | competitive
